Patent US20240299339A1, “COMPOSITION FOR SUPPRESSING MUSCLE DAMAGE” (OTSUKA PHARMACEUTICAL CO., LTD., priority 2021, published 2024)

Assay: Verification of function of KMP using 400-m run: blood markers in healthy subjects
Assay type: in vivo, human
Conditions: 16 healthy subjects (20 to 22 years old); single dose of capsule food containing 10 mg of KMP, 3 h before two 400-m full-speed runs 90 min apart; vs placebo
Experimental: According to usual methods, blood samples were taken, and the concentration of each blood marker was measured. […] It is known that blood myoglobin is detected with muscle fiber damage and that its concentration increases with muscle fiber damage (J. Appl. Physiol. 83 (4): 1076-1082, 1997).
The capsule foods used in the test were prepared according to the following procedures. Quinoa grains were extracted twice with 50% aqueous ethanol at 70° C., followed by concentration under reduced pressure. To a solution obtained by purifying the resultant with resin, Aromase H2 (produced by Amano Enzyme, Inc.) was added, and the enzyme was allowed to act (conversion into aglycone) while stirring at 50° C. The resulting reaction liquid was heated to 100° C. and maintained for 15 minutes to inactivate the enzyme. Thereafter, the treated liquid was freeze-dried to give an ethanol extraction powder. To the powder, starch was added in an amount equal to the amount of the powder (on a weight basis), followed by mixing. Capsules were filled with the resulting mixture in an amount of 116 mg (including 2.5 mg of kaempferol) per capsule. The subjects ingested four capsules (10 mg of kaempferol in total) at one time. The food used as the placebo was obtained by filling capsules with only starch.

O=c1c(O)c(-c2ccc(O)cc2)oc2cc(O)cc(O)c12 [KMP, Kaempferol]
blood myoglobin level after running at full speed: significantly lower
